According to the NIST ThermoML archive (doi:10.1021/je049971a):
Numbers after ± are expanded uncertainties.

Assay: cn = amount concentration of the nth substance listed, in mol/dm3
Details: 101 kPa, Liquid; for speed of sound: Pulse-echo method

NC(N)=O [urea] + O
Details | mass density [kg/m3] | speed of sound [m/s]
283.1 K, c1 = 4.275 | 1069 ± 4 | 1578.8 ± 2.5
288.15 K, c1 = 2.065 | 1032 ± 3 | 1527.2 ± 2.4
288.15 K, c1 = 3.148 | 1049 ± 4 | 1557.2 ± 2.5
288.15 K, c1 = 4.269 | 1067 ± 4 | 1587.6 ± 2.5
288.15 K, c1 = 5.421 | 1084 ± 4 | 1617 ± 2.5
288.15 K, c1 = 7.839 | 1120 ± 5 | 1676.8 ± 2.6
288.15 K, c1 = 9.106 | 1138 ± 6 | 1706.5 ± 2.7
298.15 K, c1 = 2.059 | 1030 ± 3 | 1548.9 ± 2.5
298.15 K, c1 = 3.139 | 1047 ± 4 | 1574.8 ± 2.5
298.15 K, c1 = 4.253 | 1063 ± 4 | 1601.1 ± 2.5
298.15 K, c1 = 5.405 | 1081 ± 4 | 1627.1 ± 2.6
298.15 K, c1 = 7.802 | 1115 ± 5 | 1680.3 ± 2.6
298.15 K, c1 = 9.069 | 1134 ± 5 | 1706.3 ± 2.7
308.15 K, c1 = 2.051 | 1026 ± 3 | 1564.8 ± 2.5
308.15 K, c1 = 3.124 | 1041 ± 4 | 1587.1 ± 2.5
308.15 K, c1 = 4.232 | 1058 ± 4 | 1610.9 ± 2.5
308.15 K, c1 = 5.378 | 1076 ± 4 | 1633.2 ± 2.6
308.15 K, c1 = 7.765 | 1109 ± 5 | 1680.9 ± 2.6
308.15 K, c1 = 9.021 | 1128 ± 5 | 1704.1 ± 2.7
